Assays:
Type in all cases: in vitro ADME
[1] = Metabolic stability in hepatocytes, CD-1 mice; conditions: CD-1 mice hepatocytes
Procedure: (§1) Purpose of the assay: Metabolic stabilities of assay compounds in hepatocytes of CD-1 mice, SD rats, beagle dogs, cynomolgus monkeys, and human were assayed, respectively.
(§2) Procedure of the assay: Several 96-well sample precipitation plates were prepared and named T0, T15, T30, T60, T90, T120, TO-MC, T120-MC and blank substrates, respectively. The recovery medium and incubation medium were taken out in advance and placed in a 37° C. water bath for pre-heating. Cryopreserved hepatocytes were removed from the liquid nitrogen tank and immediately immersed in a 37° C. water bath (approximately 90 seconds). After the cryopreserved hepatocytes had thawed and loosened, they were poured into a centrifuge tube containing 40 mL of recovery medium, and the tube was gently inverted to allow the cells to be resuspended in the recovery medium. The cells were centrifuged at 100×g at room temperature for 5 min, and the supernatant was removed. The hepatocytes were resuspended in an appropriate volume of incubation medium, and the cell viability was calculated by Trypan Blue staining method. 198 μL of hepatocyte suspension (0.51×10^6 cells/mL) was added to the preheated incubation plate. For the culture medium control group, 198 μL of hepatocyte-free incubation medium was added to T0-MC and T120-MC incubation plate. All incubation plates were pre-incubated in a 37° C. incubator for 10 minutes. Then 2 μL of working solutions of the assay sample and the control compound were added, respectively, and the mixture was mixed well. The incubation plate was immediately put into the shaker in the incubator, and the reaction was initiated while starting the timer. For each time point of each compound, 2 duplicate samples were prepared. The incubation conditions were 37° C., saturated humidity, and 5% CO2. In the assay system, the final concentration of the assay sample was 1 μM, the final concentration of the control sample was 3 μM, the final concentration of hepatocytes was 0.5×10^6 cells/mL, and the final concentration of the total organic solvent was 0.96%, of which the final concentration of DMSO was 0.1%. At the end of the incubation for the corresponding time point, the incubation plate was taken out, and 25 μL of a mixture of compound and control compound with cells was added to the sample plate containing 125 μL of stop solution (200 ng/mL tolbutamide and labetalol in acetonitrile). For the Blank sample plate, 25 μL of hepatocyte-free incubation medium was added directly. After sealing, all sample plates were shaken on a shaker at 600 rpm for 10 minutes, and then centrifuged at 3220×g for 20 minutes. Supernatants of the assay sample and the control sample were diluted with ultrapure water at a ratio of 1:3. All samples were mixed well and analyzed by LC/MS/MS.

[2] = Metabolic stability in hepatocytes, beagle dogs
Procedure: as §1, §2

[3] = Metabolic stability in hepatocytes, human
Procedure: as §1, §2

[4] = test system: plasma protein of beagle dogs; experiment: Protein binding rate by equilibrium dialysis, beagle dogs plasma; conditions: 2 μM, dialysis 4 hours
Procedure: Purpose of the assay: Protein binding rate of the assay compounds in plasma of CD-1 mice, SD rats, beagle dogs, cynomolgus monkeys and human was determined by equilibrium dialysis.
Procedure of the assay: Plasma samples with a compound concentration of 2 μM were prepared using plasma of the above five species, placed in a 96-well equilibrium dialysis device, and dialyzed with phosphate buffer solution at 37±1° C. for 4 hours. Warfarin was used as the control compound in this assay. The concentrations of the assay compounds in plasma and dialysis buffer were determined by LC-MS/MS method.

[5] = Stability assay in whole blood, SD rats; conditions: 5 μM, 37° C.
Procedure: (§3) Purpose of the assay: Stabilities of the assay compounds in whole blood of CD-1 mice, SD rats, Beagle dogs and cynomolgus monkeys were assayed, respectively.
(§4) Procedure of the assay: On the day of the assay or the day before the assay, fresh whole blood from CD-1 mice, SD rats, beagle dogs, and cynomolgus monkeys was collected using anticoagulant EDTA-K2. Prior to the start of the assay, the whole blood was mixed with PBS in 1:1 (v:v) and the mixture was preheated in a 37° C. water bath for 10-20 minutes. […] […] All samples were incubated in a 37° C. water bath. The final incubation concentration of the compound was 5 μM and the final incubation concentration of the control compound was 2 μM. At the end of incubation for each time point, the corresponding incubation plate was removed and 100 μL of ultrapure water was immediately added to the corresponding sample wells, and mixed well. 800 μL of a solution of 200 ng/mL tolbutamide and labetalol in acetonitrile was added to precipitate the protein. The sample plates were sealed and shaken well, and then centrifuged at 3220×g for 20 min. 150 μL of supernatant was taken out and analyzed by LC/MS/MS.

[6] = Stability assay in whole blood, beagle dogs; conditions: 5 μM, 37° C.
Procedure: as §3, §4

| CLint(liver) ([1]; 1 μM) [mL/min/kg] | T1/2 ([1]; 1 μM) [h] | CLint(liver) ([2]; 1 μM) [mL/min/kg] | T1/2 ([2]; 1 μM) [h] | CLint(liver) ([3]; 1 μM) [mL/min/kg] | T1/2 ([3]; 1 μM) [h] | SMILES | CLint(hep) ([1]; 1 μM) [μL/min/10^6] | CLint(hep) ([2]; 1 μM) [μL/min/10^6] | CLint(hep) ([3]; 1 μM) [μL/min/10^6] | Protein unbound rate [4] | Detection of assay compound content within [5] [%] | Detection of assay compound content within 120 min [6] [%] | half-life at 1 μM ([1]; mouse, cryopreserved hepatocytes) [min] | CLint scaled at 1 μM ([1]; mouse, cryopreserved hepatocytes, read-out: CLint(liver)) [mL/min/kg] | half-life at 1 μM ([2]; dog, cryopreserved hepatocytes) [h] | CLint scaled at 1 μM ([2]; dog, cryopreserved hepatocytes, read-out: CLint(liver)) [mL/min/kg] | half-life at 1 μM ([3]; cryopreserved hepatocytes) [h] | CLint scaled at 1 μM ([3]; cryopreserved hepatocytes, read-out: CLint(liver)) [mL/min/kg] |
| --- | --- | --- | --- | --- | --- | --- | --- | --- | --- | --- | --- | --- | --- | --- | --- | --- | --- | --- |
| 906.0 | 0.303 | <44 | >3.613 | 19.3 | 3.325 | C=C(F)C(=O)N1CCN(c2nc(OCC3CCCN3C)nc3c2COC(c2c(F)c(N)cc(C)c2C(F)(F)F)C3)CC1CC#N.Cl (single isomer, unassigned) [Compound 8B hydrochloride] | 76.3 | <6.4 | 6.9 | 6.0 | 104 | 96 |  |  |  |  |  |  |
|  |  |  |  |  |  | C=C(F)C(=O)N1CCN(c2nc(OC[C@@]34CCCN3C[C@H](F)C4)nc3c2COC(c2c(F)c(N)cc(C)c2C(F)(F)F)C3)C[C@@H]1CC#N (stereo partly drawn) [Compound 17] | 146.3 | 7.6 | 13.9 | 3.3 | 115 | 102 | 9.5 | 1740 | 3.04 | 52.3 | 1.66 | 38.7 |

— patent US12012404B2, “Pyrimidoheterocyclic compounds and application thereof” (D3 BIO (WUXI) CO., LTD., priority 2020, dated 2024)
